SMILES	melting point
O=C(O)c1nc(C2CC2)n(-c2ccccc2Cl)n1	162 to 164 °C
C=CCSc1nnc(N)s1	119 to 121 °C
CCc1nnc2cc(Cl)ncn12	108 to 110 °C
COc1ccc(NC2=NCCS2)cc1OC	88 to 90 °C
CC(C)C(Br)C(=O)N1CCC(C(N)=O)CC1 (stereo not drawn)	172 to 174 °C
CC1C=CC2C(=O)N(CC(F)(F)F)C(=O)C2C1C(=O)O (stereo not drawn)	166 to 168 °C
O=C(O)C=Cc1cc(Br)c2c(c1)OCCO2	267 to 269 °C
CC(C)(C)C=CC(=O)O	60 to 62 °C
O=C(NCc1cccc(Br)c1)NC1(C(=O)O)CCCC1	170 to 172 °C
COCCc1nnc(S)n1N	118 to 120 °C
Cc1ccc(S(=O)(=O)Cl)cc1Br	69 to 71 °C
O=C(O)c1nc(-c2ccccc2)n(-c2ccccc2)n1	177 to 181 °C
O=C(O)c1cc(-c2ccccc2)nc2cc(Br)ccc12	219 to 221 °C
Cc1ccc(CN)cn1	59 to 61 °C
Cc1ccc(NC(N)=S)cc1C	184 to 186 °C
Nc1ccc(Cl)c(CN2CCCCC2)c1	125 to 127 °C
O=C1NC2(CCCCC2)C(=O)N1Cc1ccccc1	151 to 153 °C
Cn1ncc2c(O)c(C(=O)O)cnc21	193 to 195 °C
COC(=O)C(N)Cc1c[nH]c2ccc(Br)cc12 (stereo not drawn)	119 to 121 °C
Nc1ccc(N2CCOCC2)c(S(=O)(=O)Nc2ccccc2Cl)c1	219 to 221 °C
O=C(NC1CC1)C(Cl)c1ccccc1 (stereo not drawn)	128 to 130 °C
CCCCN1Cc2ccc(N)cc2C1	62 to 64 °C
Cc1nc(S(=O)(=O)N2CCC(C(=O)O)CC2)cn1C	262 to 264 °C
COCc1nc(C)c(C(=O)O)s1	159 to 161 °C

SMILES	melting point
Cc1cc2cc(F)ccc2[nH]1	98 to 101 °C
Cc1cc(N)c(N)cc1C	127 to 129 °C
CC(CCc1ccccc1)NS(=O)(=O)c1ccc(Cl)c(C(=O)O)c1 (stereo not drawn)	94 to 96 °C
N#Cc1ccc(Oc2ccc(S(=O)(=O)Cl)cc2)cc1	110 to 112 °C
COc1cc2c(cc1OC)C(c1ccccc1)N(C(=O)CCl)CC2 (stereo not drawn)	218 to 222 °C
COC(=O)c1ccc(C(=O)O)s1	194 to 196 °C
Cc1nc2ccccc2c(=O)n1-c1ccc(C(=O)O)cc1	220 to 222 °C
Cc1nc(NC(=O)OC(C)(C)C)sc1C(N)=O	279 to 281 °C
COc1cccc(SCC(=O)O)c1	60 to 62 °C
Oc1ccc(-c2cnc3ccccc3n2)cc1	204 to 206 °C
Cn1cnc2cc(Br)ccc2c1=O	156 to 158 °C
O=C(O)CCC(=O)c1ccc(F)c(F)c1	84 to 86 °C
NC(CN1CCCCCC1)=NO	124 to 126 °C
CCOC(=O)c1cc2c(F)cc(Br)cc2[nH]1	194 to 196 °C
Cc1cc(N)n(-c2ccccn2)n1	102 to 104 °C
O=C(O)C1CCCN(C(=O)NC2CCCC2)C1 (stereo not drawn)	167 to 169 °C
CC(C)CNC(=O)N1CCCC(C(=O)O)C1 (stereo not drawn)	106 to 108 °C
COc1ccc(SCC(=O)O)cc1	77 to 79 °C
Cc1ccc(Cl)c2c1C(=O)C(=O)N2	209 to 211 °C
Cc1cc(N)n(C2CCN(C)CC2)n1	89 to 91 °C
NS(=O)(=O)c1cc(Cl)ccc1Cl	179 to 181 °C
CCOC(=O)c1ccc(C=O)o1	35 to 37 °C
O=C(CCl)Nc1cc(C(F)(F)F)ccc1N1CCOCC1	155 to 157 °C
Cc1nc2c([nH]1)CCC(C(=O)O)C2 (stereo not drawn)	229 to 231 °C

SMILES	melting point
NC(=O)CNS(=O)(=O)c1ccc(Br)c(C(=O)O)c1	226 to 228 °C
Cc1ccc(CN2CCSCC2)cc1N	136 to 138 °C
O=C1CC(C(F)(F)F)N(C(=O)CCl)c2ccccc2N1 (stereo not drawn)	159 to 161 °C
ClCc1nnnn1-c1ccccc1	45 to 73 °C
N#Cc1ccccc1Sc1ccccc1C(=O)O	213 to 216 °C
NS(=O)(=O)c1ccc(C(=O)O)nc1	194 to 196 °C
O=C1CCC(C(F)(F)F)=NN1	75 to 77 °C
Cc1ccc(Nc2nnc(S)s2)c(C)c1	172 to 174 °C
CN(C)S(=O)(=O)c1ccc(N)c(N)c1	193 to 195 °C
CC1=NN(c2cccc(C(F)(F)F)c2)C(=O)C1	127 to 129 °C
O=C(O)C(NCC(F)(F)F)c1cc(Br)cs1 (stereo not drawn)	178 to 180 °C
Cc1ccc2c(CC#N)c[nH]c2c1	115 to 117 °C
O=Cc1ccc(-c2ccc(Cl)cc2C(F)(F)F)s1	58 to 60 °C
NC(=O)COc1ccc(Cl)cc1S(=O)(=O)Cl	143 to 145 °C
Cc1noc(C2CC2)c1NC(=O)OC(C)(C)C	108 to 110 °C
O=S(=O)(O)c1nc2ccc(Cl)cc2[nH]1	329 to 331 °C
CC(C)(C)OC(=O)NC(CC(=O)O)c1ccccc1 (stereo not drawn)	135 to 137 °C
c1ccc(COc2ccc3[nH]ncc3c2)cc1	175 to 177 °C
O=C(O)C1CCCCS1(=O)=O (stereo not drawn)	166 to 168 °C
COc1ccc(NS(=O)(=O)c2cccc(N)c2)cc1	109 to 111 °C
Nc1cc(C2CCCC2)nn1-c1ccccc1	80 to 82 °C
NC(=O)c1cc(C(=O)O)nn1-c1ccccc1	269 to 271 °C
Cn1c(S)nnc1N1CCOCC1	194 to 196 °C
O=C(Nc1cccc(O)c1)c1ccco1	164 to 166 °C

SMILES	melting point
COc1ccc(CCCC(=O)O)cc1F	63 to 65 °C
Nc1cc(-c2ccccc2I)no1	120 to 122 °C
CC(C)(C)OC(=O)NCC(C(=O)O)c1ccccc1 (stereo not drawn)	144 to 146 °C
CS(=O)(=O)c1ccc(Br)cc1N	109 to 111 °C
O=C(NC(Cc1ccccc1)C(=O)O)c1cccs1 (stereo not drawn)	202 to 204 °C
CON(C)S(=O)(=O)c1ccc(Cl)c(C(=O)O)c1	184 to 186 °C
CCOC(=O)c1cnn(-c2ccc(C(=O)O)cc2)c1C(F)(F)F	175 to 177 °C
Nc1nonc1-c1ccccn1	124 to 126 °C
Nc1ccc(Oc2ccc(CO)cc2)cc1	79 to 81 °C
CCCOc1ccc(C#N)cc1OC	90 to 92 °C
Cc1ccc(N)c(C)c1O	102 to 104 °C
CC(C)(C)c1ccc(Cl)nn1	83 to 85 °C
Cc1nn(Cc2ccc(Cl)cc2)c2sc(C(=O)O)cc12	245 to 247 °C
O=C(O)c1ccc(Cl)[nH]c1=O	224 to 226 °C
CC(C)(N)c1noc(C(N)=O)n1	168 to 170 °C
O=C(O)[C@@H]1CCCN1C(=O)Nc1ccc2c(c1)OCCO2	176 to 178 °C
Nc1[nH]nc(CCC2CCCCC2)c1-c1ccc(Br)cc1	168 to 170 °C
Nc1sc2c(c1-c1nc3ccccc3s1)CCC2	135 to 137 °C
O=C1OCCc2cnc3nc(C(F)(F)F)nn3c21	185 to 187 °C
O=C(O)CNC(=O)N1CCc2ccccc2C1	159 to 161 °C
CCOc1cccc(C=CC(=O)O)c1OC1CCCCC1	137 to 139 °C
CC(=O)Nc1ccc(F)c(C(=O)O)c1	259 to 261 °C
CC(C)(C)OC(=O)N1CC=C(n2c(=O)[nH]c3ccccc32)CC1	201 to 203 °C
NNC(=O)C1CCC1	91 to 93 °C

SMILES	melting point
O=C(O)c1ccc(SC2CCOC2=O)cc1 (stereo not drawn)	169 to 171 °C
CC(C)(C)OC(=O)N1CCCC(COS(C)(=O)=O)C1 (stereo not drawn)	76 to 78 °C
NNC(=O)c1ccc(-n2cnnn2)cc1	228 to 230 °C
NC(=O)c1ccn(-c2cccc(N)c2)n1	177 to 179 °C
COc1c(N)cc(C(C)(C)C)cc1C(C)(C)C	79 to 81 °C
c1ccc(NC2CCCCC2)nc1	123 to 125 °C
O=C(CC(=O)c1ccccc1)Nc1ccccc1	107 to 109 °C
Cc1ccc2c(c1)C(=O)C(=O)N2	180 to 184 °C
O=C(O)c1nn(Cc2ccccc2)c(=O)c2ccccc12	199 to 201 °C
Cn1ccnc1C(=O)OCC(F)(F)F	83 to 85 °C
Cc1cccc(Cl)c1OCC(=O)O	99 to 101 °C
CNc1snc(C)c1C(=O)OC	56 to 58 °C
Cc1nccn1-c1ccc(C(F)(F)F)cc1N	183 to 185 °C
COc1cc(CCl)ccc1SC	78 to 80 °C
CNc1cn[nH]c(=O)c1	279 to 281 °C
Brc1ccc(SC2CCOCC2)nc1	60 to 62 °C
CN(C(=O)c1cccc(N)c1)c1ccccc1	144 to 146 °C
CC1CCN(c2cc(C(=O)O)ccn2)C1 (stereo not drawn)	195 to 197 °C
O=C1CCCc2c(Br)cccc2N1	169 to 171 °C
Cn1cc(C=O)c(-c2ccncc2)n1	131 to 133 °C
O=C(Nc1ccsc1C(=O)O)c1ccc(Br)cc1	240 to 242 °C
Cc1n[nH]cc1N	93 to 95 °C
CS(=O)(=O)Cc1ccc(N)cc1	159 to 161 °C
CC(Cl)c1nnc(-c2ccccc2)o1 (stereo not drawn)	< 17 °C

SMILES	melting point
Cc1cc(C(=O)O)nn1-c1ccccn1	157 to 159 °C
O=C(O)c1cc(Cl)n[nH]c1=O	212 to 214 °C
O=C(O)CCOc1ccc(Oc2ccccc2)cc1	118 to 120 °C
c1cc(-c2ccsc2)n[nH]1	110 to 112 °C
O=C(O)c1cccc2c1CCCN2	142 to 144 °C
COc1ccccc1CNC(=O)C(C)Cl (stereo not drawn)	113 to 115 °C
CC1CCN(C(N)=S)CC1	103 to 105 °C
Sc1n[nH]c(-c2ccccn2)n1	279 to 281 °C
COC(=O)c1cc([N+](=O)[O-])c(F)cc1Cl	59 to 61 °C
Nc1ccn(Cc2ncccn2)n1	100 to 102 °C
Cc1cc(C)nc(-n2nccc2N)n1	183 to 185 °C
CC(C)(C)OC(=O)Nc1ccccc1N	105 to 107 °C
CN(CC#N)C(=O)c1ccccc1	73 to 75 °C
O=Cc1ccccc1OCc1ccccn1	73 to 75 °C
O=C(CCl)Nc1ccc(NC(=O)c2cccs2)cc1	243 to 245 °C
CC(C)(C)OC(=O)c1cccc(C=O)c1	31 to 33 °C
CC(C)(C)OC(=O)Nc1snnc1C(=O)O	139 to 141 °C
CC1CCCCC1N1C(=O)C=CC1=O (stereo not drawn)	40 to 42 °C
Cc1cccc(C)c1Nc1nnc(SCC(=O)O)s1	207 to 209 °C
Cc1ccc(S(=O)(=O)C(C#N)c2nc3ccccc3nc2Cl)cc1 (stereo not drawn)	105 to 107 °C
Cc1nn(CCO)c2ncc(Br)cc12	110 to 112 °C
Cc1cc(-c2ncc[nH]2)c(=O)[nH]n1	254 to 256 °C
O=C(O)c1ccc(NC(=O)c2ccc(Br)cc2)cc1	327 to 329 °C

Reference: a melting point compilation (Tetko et al.)
